US5593988A, “Therapeutic agent for osteoporosis and diazepine compound” (Yoshitomi Pharmaceutical Industries, Ltd., priority 1991, dated 1997)

The molecules below were run on bone resorption (parietal bone) (assay: Bone resorption-inhibitory activity (45Ca release from newborn mouse parietal bone, hPTH (1-34) stimulated, method of Raisz)). Conditions: 5 μM, Table 20, average of four pairs, read-out: bone resorption-inhibitory action, % against control.
Format: cell-based, ICR mouse
Text: The method for determining the bone resorption-inhibitory activity of the Compound (I) and the results are shown in the following.
Bone resorption-inhibitory activity
The determination of the bone resorption-inhibitory activity basically followed the method of Raisz [J. Clin. Invest., vol. 44, pp. 103-116 (1965)].
A 1-2 days old new born ICR mouse was intraperitoneally administered with 1.5μ Ci ^45 Ca (CaCl2 solution of isotope of calcium) and parietal bone was asceptically removed the next day. The parietal bone was split into two along the central sature line and one of them was used as a control and the other was used for the experiment. The bone was preincubated in 0.5 ml of a BGJb medium (Fitton-Jackson modification, GIBCO Laboratories, U.S.A.) added with the test compound to a concentration of 5 μM or 20 μM and bovine serum albumin (1 mg/ml) at 37° C. for 2 days, and further incubated in the aforementioned medium containing 50 nM hPTH (1-34) for 3 days. After the incubation, the radioactivity of ^45 Ca in the medium and in the bone was measured and the ratio (%) of ^45 Ca released from the bone into the medium was calculated. [formula]
Using the bone obtained from the same mouse and treated in the same manner without the test compound as a control, the ratio (%) against the control was calculated according to the following equation. [formula]
The average of these values obtained from four pairs from each group was calculated.
CCc1cc2c(s1)-n1c(C)nnc1C(NC(=O)Nc1ccccc1)N=C2c1ccc(Cl)cc1 (stereo not drawn) [compound 87] showed an inhibition at 5 µM of 31.6%. CCCCc1cc2c(s1)-n1c(C)nnc1C(NC(=O)Nc1cccc(C)c1)N=C2c1ccc(Cl)cc1 (stereo not drawn) [compound 98] showed an inhibition at 5 µM of 35%.

Same assay, conditions: 20 μM, Table 20, average of four pairs, read-out: bone resorption-inhibitory action, % against control
With CCc1cc2c(s1)-n1c(CCCc3ccc(CC(C)C)cc3)nnc1COC2c1ccc(Cl)cc1 (stereo not drawn) [compound 330] the inhibition at 20 µM was 35.6%. For Cc1nnc2n1-c1sc(CCC(=O)N3CCN(C(c4ccccc4)c4ccccc4)CC3)cc1C(c1ccccc1Cl)=NC2 [compound 36], the inhibition at 20 µM was 21.9%. Cc1nnc2n1-c1sc(CCc3ccc(CC(C)C)cc3)cc1C(c1ccccc1Cl)=NC2c1ccccc1 (stereo not drawn) [compound 44] showed an inhibition at 20 µM of 15.7%. With CCc1cc2c(s1)-n1c(C)nnc1C(NC(=O)c1cc3ccccc3[nH]1)N=C2c1ccccc1Cl (stereo not drawn) [compound 48] the inhibition at 20 µM was 25.7%.

Same assay, conditions: read-out: bone resorption-inhibitory action, % against control
Molecule Cc1nnc2n1-c1ccccc1C(c1ccc(Cl)cc1)=NC2NC(=O)NC(=O)c1ccccc1 (stereo not drawn) [compound 525] has an inhibition at 20 µM of 26.8%. For Cc1nnc2n1-c1ccccc1C(c1ccc(Cl)cc1)=NC2NC(=O)C(=O)Nc1ccccc1 (stereo not drawn) [compound 530], the inhibition at 20 µM was 28.2%. Cc1nnc2n1-c1ccccc1C(c1ccccc1)=NC2COC(=O)Cc1ccccc1 (stereo not drawn) [compound 511] gave an inhibition at 20 µM of 37.7%. With CCc1cc2c(s1)-n1c(C)nnc1C(OC(=O)Nc1cccc(C)c1)N=C2c1ccc(OC)cc1 (stereo not drawn) [compound 257] the inhibition at 20 µM was 27.1%. Cc1nnc2n1-c1sc(CCc3ccc(CC(C)C)cc3)cc1C(c1cccc(Cl)c1)=NC2 [compound 5] gave an inhibition at 20 µM of 26.7%. Cc1cccc(NC(=O)NC2N=C(c3cccs3)c3ccccc3-n3c(C)nnc32)c1 (stereo not drawn) [compound 521] showed an inhibition at 20 µM of 29.6%. Cc1cccc(N2C(=O)NC3(N=C(c4ccc(Cl)cc4)c4ccccc4-n4c(C)nnc43)C2=O)c1 (stereo not drawn) [compound 531] gave an inhibition at 20 µM of 34.4%. CCCCCCCCCCc1ccc2c(c1)-n1c(C)nnc1C(C)N=C2c1ccccc1 (stereo not drawn) [compound 520] gave an inhibition at 20 µM of 22.5%. Molecule Cc1nnc2n1-c1sc(CCc3ccc(CC(C)C)cc3)cc1C(c1ccccc1F)=NC2 [compound 30] has an inhibition at 20 µM of 20.6%. Work on CCc1cc2c(s1)-n1ccnc1CN=C2c1ccccc1Cl [compound 67] yielded an inhibition at 20 µM of 55.3%. Cc1nnc2n1-c1sc(CCC(=O)N3CCOCC3)cc1C(c1ccccc1Cl)=NC2C (stereo not drawn) [compound 38] showed an inhibition at 20 µM of 46%. Cc1nnc2n1-c1sc3c(c1C(c1ccccc1Cl)=N[C@H]2C)CCN(C(=O)C1CC1)C3 [compound 52] was tested, and the inhibition at 20 µM was 29.9%.
